# Results published in patent US5281604A, “Angiotensin II receptor blocking 2,3,6-substituted quinazolinones” (American Cyanamid Company, priority 1993, dated 1994).
# Target: T1, Angiotensin II Receptor (Bos taurus, UniProt P25104)
# T1 construct: beef adrenal glands are processed as follows: fresh adrenal glands received on crushed ice are cleaned of fatty tissues; tissue Maxwell-Cohen (local slaughter house); host or cells: beef adrenal cortex, microsomal membranes (100,000×g pellet)
# T1 sequence (P25104 1-359): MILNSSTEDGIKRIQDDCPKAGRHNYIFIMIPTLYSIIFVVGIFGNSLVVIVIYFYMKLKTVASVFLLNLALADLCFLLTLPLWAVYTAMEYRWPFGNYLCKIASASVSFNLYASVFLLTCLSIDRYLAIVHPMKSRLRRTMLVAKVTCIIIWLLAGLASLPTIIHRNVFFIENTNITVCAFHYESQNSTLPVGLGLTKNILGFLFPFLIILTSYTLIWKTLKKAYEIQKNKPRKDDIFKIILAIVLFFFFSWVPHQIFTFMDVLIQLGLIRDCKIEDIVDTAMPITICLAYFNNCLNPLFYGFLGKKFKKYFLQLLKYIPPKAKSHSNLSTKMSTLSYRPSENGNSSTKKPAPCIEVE
# Assay: Receptor Binding Assay: displacement of [125I](Sar1,Ile8)AngII from beef adrenal cortex microsomal membranes
# Details: 60 min room temperature
# Description: Beef adrenals are obtained from a local slaughter house (Maxwell-Cohen).
# [^125 I](Sar^1,Ile^8)AngII, S.A. 2200 Ci/mmole, is purchased from Dupont (NEN®, Boston, Mass.). All unlabeled AngII analogs, Dimethylsulfoxide (DMSO), nucleotides, bovine serum albumin (BSA) are purchased from Sigma Chemical Co., St. Louis, Mo. U.S.A.
# Approximately sixteen (16) to twenty (20) beef adrenal glands are processed as follows: fresh adrenal glands received on crushed ice are cleaned of fatty tissues and the tough membranes encapsulating the glands are removed and discarded. The brownish tissue forming the adrenal cortex is scraped off and finely minced with scissors before homogenization. Care is taken to avoid contamination with medullary tissue during dissection. The scraped cortices are suspended in twenty volumes of an ice-cold buffer medium consisting of 10 mM Tris.HCl (pH 7.4 at 22° C.) and containing 1.0 mM EDTA and 0.2M sucrose. Unless otherwise indicated, all subsequent operations are done at 4° C. […] The homogenate is centrifuged first at low speed (3,000×g) for 10 min. The resulting pellet is discarded and the supernatant fluid recentrifuged at 10,000×g for 15 minutes to give a P2 pellet. This P2 pellet is discarded and the liquid phase is carefully decanted off in clean centrifuge tubes and recentrifuged at high speed (100,000×g) for 60 min. The translucent final pellet is harvested and combined in a small volume (20-50.0 ml) of 50.0 mM Tris.HCl buffer, pH 7.2. A 100 ul aliquot is withdrawn and the protein content of the preparation is determined by the Lowry's method (Lowry, O. H., Rosebrough, N. F., Farr, A. L. and Randall, R. J., Protein measurement with Folin phenol reagent. J. Biol. Chem., […], 265-275, 1951). The pelleted membrane is reconstituted in 50.0 mM Tris.HCl buffer containing 0.1 mM of phenylmethylsulfonyl fluoride (PMSF) to give approximately a protein concentration of 2.5 mg per ml of tissue suspension. The membrane preparation is finally aliquoted in 1.0 ml volumes and stored at -70° C. until use in the binding assays.
# The binding of [^125 I](Sar^1.Ile^8)AngII to microsomal membranes is initiated by the addition of reconstituted membranes (1:10 vols.) in freshly made 50.0 mM Tris.HCl buffer, pH 7.4 containing 0.25% heat inactivated bovine serum albumin (BSA): 80 ul membrane protein (10 to 20 ug/assay) to wells already containing 100 ul of incubation buffer (as described above) and 20 ul [^125 I](Sar^1,Ile^8)AmgII (Specific Activity, 2200 Ci/mmole) Non-specific binding is measured in the presence of 1.0 uM unlabeled (Sar^1,Ile^8)AngII, added in 20 ul volume. Specific binding for [^125 I](Sar^1,Ile^8) AngII is greater than 90%. In competition studies, experimental compounds are diluted in dimethylsulfoxide (DMSO) and added in 20 ul to wells before the introduction of tissue membranes. This concentration of DMSO is found to have no negative effects on the binding of [^ 125I] (Sar^1,Ile^8) AngII to the membranes. Assays are performed in triplicate. The wells are left undisturbed for 60 min. at room temperature. […] Presoaking the filter sheet in 0.1% polyethyleneimine in normal saline (PEI/Saline) greatly reduces the radioactivity retained by the filter blanks. […] The filters are removed from the filter grid and counted in a Parkard® Cobra Gamma Counder for 1 min. […] The binding data are analyzed by the non-linear interactive "LUNDON-1" program (LUNDON SOFTWARE Inc., Cleveland, Ohio U.S.A.).
smiles,measurement,value
"CCCCc1nc2ccc([C@H]3OC[C@@H]4ON5[C@@H](CCC5(C)C)[C@@H]43)cc2c(=O)n1Cc1ccc(-c2ccccc2-c2nnn[nH]2)cc1 (relative stereo) [Example 8, (3α, 3aα, 8aβ, 8bα)'-2-Butyl-6-(6,6-dimethylocta hydrofuro[3,4-d][1,2-b]isoxazol-3-yl)-3[[2'-(1H-tetrazol-5-yl)[1,1'biphenyl]-4yl]methyl]-4(3H) quinazolinone]",IC50,37 nM
